The test can be described thus: Inhibition of virion associated RT activity relative to untreated, infected control in cord blood mononuclear cells (CBMC) infected with HIV -1 TC354 strain.

The results in this text go back to BindingDB's records for doi:10.1021/jm000013n (The University of Queensland, 2000).

pIC50: −log10 of the molar value.

What is called pIC50 is −log10 of the IC50, conventionally taken in molar units. `CC[C@@H](C)[C@@H]1NC(=O)[C@@H](NC[C@@H](O)[C@H](Cc2ccccc2)NC(=O)[C@@H](NC(=O)c2ccc3ccccc3n2)C(C)C)Cc2ccc(cc2)OCCCNC1=O` gave a pIC50 of 7.02.

With `O=C1N(Cc2ccc(CO)cc2)[C@H](Cc2ccccc2)[C@H](O)[C@@H](O)[C@@H](Cc2ccccc2)N1Cc1ccc(CO)cc1` [(4R,5S,6S,7R)-4,7-dibenzyl-5,6-dihydroxy-1,3-bis({[4-(hydroxymethyl)phenyl]methyl})-1,3-diazepan-2-one], the pIC50 was 6.96.
